Source: patent US20120329738A1, “Water Soluble Drug-Solubilizer Powders and Their Uses” (priority 2009, published 2012)
Converted amounts (≈) assume the structure as drawn. “And” between values parts separate entries of the source, which are not always exact repeats. Identical values can stand only once. Like-named read-outs stand apart in the source and are kept apart here. One block for each compound: values may come before it.

What was measured:
[1] = physchem; settings: 25 °C, aqueous with cosolvent or surfactant or cyclodextrin, thermodynamic from solid
[2] = in vitro; settings: human, Caco-2
Source text: Human epithelial colorectal adenocarcinoma cell line (Caco-2) was obtained from the American Type Culture Collection (ATCC), and cultured according to directions. Caco-2 cells grown in tissue culture flasks were trypsinized, suspended in medium, and the suspensions were applied to wells of a collagen-coated BioCoat Cell Environment in 24-well format (BD Biosciences) at 24,500 cells per well. The cells were allowed to grow and differentiate for three weeks, feeding at 2-day intervals. […] For Apical to Basolateral (A->B) permeability, the test agent (1 mg/mL)+probe substrate were added to the apical (A) side, test agent was added to the Basolateral (B) side, and amount of permeation was determined on the B side. For Basolateral to Apical (B>A) permeability, the test agent+probe substrate were added to the B side, test agent was added to the A side, and the amount of permeation of probe substrate was determined on the A side. Buffer alone, without test agent, was used as a negative control. […] Dosing solutions were prepared by dissolving the test agent in Transport buffer, then adding Lucifer yellow to a portion as indicated. CaCo-2 cells were incubated with these buffers for 2 h., and the receiver side buffer is removed for analysis by LC/MS/MS.
To verify the CaCo-2 cell monolayers were properly formed, aliquots of the cell buffers were analyzed by fluorescence to determine the transport of the impermeable dye Lucifer Yellow.
Where dQ/dt is the rate of permeation, C0 is the initial concentration of test agent, and A is the area of the monolayer.
From bidirectional permeability studies, the efflux ration (RE) is also calculated:
The P-gp inhibition data were calculated from the permeability results for the probe substrate as indicated. Ranitidine (low permeability) and warfarin (high permeability) are included as controls to ensure the proper performance of the test system.

[3] = Concentration of curcumin dissolved in rebaudioside A water solution, HPLC; assay type: physicochemical; settings: 5% w/v rebaudioside A
Source text: A new method (the “Sonication—autoclave method”) was used to solublize most of the compounds, a method different from that reported in International Patent Application No. PCT/US2009/040324 (the “Standard Shake Flask method”). The main difference was the use of higher temperatures and elevated atmospheric pressures. The steps of the new enhanced process are as follows. A water-insoluble compound was weighed into multiple flasks, divided into two groups—a control group and an experimental group. Each experimental flask received a known amount of the solubilizing agent, e.g. rubusoside, being tested. The control flasks contained only the water-insoluble compound. The same volume, 10 mL, unless otherwise indicated, of deionized and distilled water was added to each flask. Alternatively, water solutions containing a known percentage of solubilizer (e.g., 5% or 10% w/v) were prepared. The solubilizer-water solutions were added directly to the experimental flasks containing the water-insoluble compound. In either case, the flasks were then vortexed briefly and sonicated for 60 min at 50° C. Sonication is a process of applying sound (usually ultrasound) energy to agitate particles in a sample. Using this energy, inter-molecular interactions are facilitated. After sonication, the solution was then subjected to heat and pressure. […] The supernatant solution was passed through a 0.45 μm filter and analyzed for the concentration of the water-insoluble compound or solubilizer by HPLC or LC/MS, as described below.
To test if the enhanced process also applies to another solubilizing agent, rebuadioside A was used. […] The water solutions were filtered by 0.45 μM filters and analyzed on HPLC. Quantification was done by comparing to a standard solution of a known amount of curcumin in methanol. […] Curcumin concentration was determined using a standard curcumin solution of 196.8 μg/mL. […]

[4] = Stability of curcumin-rubusoside water solutions (dilution with water, storage, pH); assay type: physicochemical
Experimental: This is important because the concentrated curcumin solution may be diluted in a biological system, e.g., in the stomach fluid.
Various concentrations of the solubilizer rubusoside were prepared in water: 0%, 1%, 2.5%, 5%, 10%, 20%, 30%, and 40% w/v. Curcumin (100 mg) was weighed and added into separate flasks, and an equal amount (10 ml) of a rubusoside solution was added to each flask. The prepared water solutions were vortexed briefly and then sonicated for 60 min at temperature of 50° C. These water solutions were subjected to a heat and pressure treatment composed of 121° C. and 1.1 to 1.2 atm for 60 min, and then placed in an incubator set at 25° C. for at least 24 hr. The solutions were then centrifuged at 4000 rpm for 10 min. The supernatant solution was passed through a 0.45 μm filter and analyzed for the concentration of either the water-insoluble compound or rubusoside by HPLC or LC/MS, as described above in Example 2. Quantification was done by comparing to a standard solution of a known amount in methanol. In the presence of 0%, 1%, 2.5%, 5%, 10%, 20%, 30%, and 40% w/v of rubusoside, the water solutions contained 0, 28, 267, 762, 1330, 2914, 4449, and 6004 μg/mL curcumin, respectively. […] When adjusted to about pH 7.0 by the addition of 1× phosphate buffered saline (PBS) powder, the solutions remained stable for at least 48 hours. Thus the reconstituted solution with saline would be sufficiently stable at pH 7.0 for use in a clinic setting.

[5] = for Curcumin content of reconstituted solution: 100 mg in 10 mL water
Experimental: The water solutions containing the complexes of the water-insoluble compound and the solubilizer were dried to remove the water and to form a powder. […] Any method of water removal could be used, including freeze-drying, spray-drying, or oven drying. […] The amount of added water can be adjusted to achieve the desired concentration of the compound.
The 30% and 40% curcumin-rubusoside water solution (10 mL) were freeze-dried to powder. […] Part of this powder (100 mg) was re-constituted in 10 mL water. […] (FIG. 13) Similarly, the 30% curcumin-rebusoside solution was freeze-dried to powder, and 100 mg powder reconstituted with 10 mL water.
The powder was reconstituted using 1 ml, 0.5 ml, 0.25 ml or 0.1 ml water, followed by 60 min sonication and a brief vortex. […] Paclitaxel concentrations were determined using a standard paclitaxel calibration curve with paclitaxel standard in methanol. […] (FIG. 15).

[6] = system: human pancreatic cancer cells (PANC-1); test: Growth inhibition of PANC-1 cells by re-constituted curcumin water solution; assay type: cell-based
Experimental: The pH-adjusted water solution was then co-cultured with human pancreatic cancer cells (PANC-1) for 72 hours in a standard cell culture medium. […] All culture materials were purchased from Invitrogen Corporation (Carlsbad, Calif.). […] (FIG. 14).

[7] = system: human pancreatic cancer cells (PANC-1); settings: literature value; read-out: IC50 for Panc-1 reported by Holcomb et al.; cited from earlier work
[8] = target: T1, P-gp (Homo sapiens, UniProt P08183); test: P-gp inhibition in Caco-2 assay with digoxin probe substrate; assay type: in vitro ADME; settings: Caco-2 cell monolayers, probe digoxin 5 µM, test conc 1 mg/mL (1.558 mM), 5 μM digoxin
T1 construct: endogenous in cells; host or cells: Caco-2 (ATCC), differentiated for three weeks on collagen-coated inserts
T1 sequence (P08183 whole entry): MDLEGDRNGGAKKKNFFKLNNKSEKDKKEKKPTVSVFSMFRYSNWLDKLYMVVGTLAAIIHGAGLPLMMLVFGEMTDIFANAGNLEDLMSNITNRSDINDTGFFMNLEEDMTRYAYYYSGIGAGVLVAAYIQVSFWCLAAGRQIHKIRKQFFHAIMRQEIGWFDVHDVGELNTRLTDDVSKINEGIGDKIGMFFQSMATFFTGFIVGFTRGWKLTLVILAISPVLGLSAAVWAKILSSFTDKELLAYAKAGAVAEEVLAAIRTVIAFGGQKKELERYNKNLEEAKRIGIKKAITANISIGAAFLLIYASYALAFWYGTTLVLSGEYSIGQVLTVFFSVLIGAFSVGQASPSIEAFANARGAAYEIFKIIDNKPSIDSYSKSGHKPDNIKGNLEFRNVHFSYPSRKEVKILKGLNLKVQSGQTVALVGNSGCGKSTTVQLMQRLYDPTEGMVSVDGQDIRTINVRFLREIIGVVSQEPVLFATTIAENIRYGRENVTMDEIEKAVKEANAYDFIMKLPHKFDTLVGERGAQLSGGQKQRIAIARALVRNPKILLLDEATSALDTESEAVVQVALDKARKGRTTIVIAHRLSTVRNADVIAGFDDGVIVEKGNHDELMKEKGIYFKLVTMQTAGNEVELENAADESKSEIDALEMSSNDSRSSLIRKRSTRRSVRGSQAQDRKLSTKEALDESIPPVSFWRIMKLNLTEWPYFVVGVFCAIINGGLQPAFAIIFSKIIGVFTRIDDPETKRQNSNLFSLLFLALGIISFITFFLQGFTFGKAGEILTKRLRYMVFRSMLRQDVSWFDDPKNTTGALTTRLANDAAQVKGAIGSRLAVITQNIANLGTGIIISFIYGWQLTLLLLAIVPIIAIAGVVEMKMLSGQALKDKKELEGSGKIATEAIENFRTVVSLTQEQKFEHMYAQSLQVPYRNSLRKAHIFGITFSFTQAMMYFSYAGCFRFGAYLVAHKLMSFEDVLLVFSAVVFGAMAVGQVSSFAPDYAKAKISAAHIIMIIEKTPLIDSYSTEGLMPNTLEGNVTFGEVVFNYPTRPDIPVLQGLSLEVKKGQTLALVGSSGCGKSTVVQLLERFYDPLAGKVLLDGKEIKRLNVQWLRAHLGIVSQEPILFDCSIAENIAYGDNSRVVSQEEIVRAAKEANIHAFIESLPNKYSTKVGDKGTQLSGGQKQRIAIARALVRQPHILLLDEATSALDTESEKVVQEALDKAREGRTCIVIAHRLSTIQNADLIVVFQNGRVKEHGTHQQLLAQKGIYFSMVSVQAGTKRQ

[9] = Solubility in water without solubilizer; assay type: physicochemical
[10] = room temperature; The Merck Index, 1996; cited from earlier work

Structure (SMILES): C=C1CC[C@H](O)C/C1=C/C=C1\CCC[C@]2(C)[C@@H]([C@H](C)CCCC(C)C)CC[C@@H]12 [vitamin D3, cholecalciferol]
Concentration in re-composed single water solution (mixed vitamins A, D, E, K in 10% rubusoside): 4.7 µg/mL
solubility [1]: 4.5 mg/mL (≈ 11.7 mM)

Structure (SMILES): C[C@H]1O[C@@H](O[C@H]2[C@@H](O)C[C@H](O[C@H]3[C@@H](O)C[C@H](O[C@H]4CC[C@@]5(C)[C@H](CC[C@@H]6[C@@H]5C[C@@H](O)[C@]5(C)[C@@H](C7=CC(=O)OC7)CC[C@]65O)C4)O[C@@H]3C)O[C@@H]2C)C[C@H](O)[C@@H]1O [Digoxin, digoxin]
Papp A→B at 2 h, 5 μM [2]: 1.4 ×10⁻⁶ cm/s
Papp B→A at 2 h, 5 μM [2]: 18.7 ×10⁻⁶ cm/s
efflux ratio at 2 h, 5 μM [2]: 13.7

Structure (SMILES): C=C1C[C@@]23CC[C@H]4[C@@](C)(CCC[C@@]4(C)C(=O)O[C@@H]4O[C@H](CO)[C@@H](O)[C@H](O)[C@H]4O)[C@@H]2CC[C@]1(O[C@@H]1O[C@H](CO)[C@@H](O)[C@H](O)[C@H]1O)C3 [Rubusoside, b-D-glucosyl ester of 13-O-b-D-glucosyl-steviol]
inhibition at 2 h, 1 mg/mL [8]: 59%
solubility ([9]; 25° C.): ~400 mg/mL (≈ 622 mM)
solubility ([9]; 37° C.): ~800 mg/mL (≈ 1240 mM)

Structure (SMILES): CC(=O)[C@H]1CC[C@H]2[C@@H]3CCC4=CC(=O)CC[C@]4(C)[C@H]3CC[C@]12C [progesterone]
Reconstitution of dried powder [5]: successfully reconstituted

Structure (SMILES): CC[C@@]1(O)C(=O)OCc2c1cc1n(c2=O)Cc2cc3ccccc3nc2-1 [camptothecin]
Fold increase, enhanced vs standard process (10% w/v rubusoside): more than 3 fold
Concentration in water solution (10% w/v rubusoside, enhanced process (Sonication-Autoclave)): 247 µg/mL
Concentration in water solution (10% w/v rubusoside, standard process (Shake-flask)): 80 µg/mL

Structure (SMILES): O=C(O)c1cc(O)c(O)c(O)c1 [Gallic acid]
Solubility in water [10]: about 11 mg/ml

The next lines start with results.

Fold increase, enhanced vs standard process [3]: ~2 fold
Curcumin in water solution ([3]; enhanced process): 302 µg/mL
Curcumin in water solution ([3]; standard process): 156 µg/mL
Curcumin in water solution ([4]; Stock, 40.0% w/v rubusoside): 6004 µg/mL
Curcumin in water solution ([4]; stock diluted 1:1 with water, 20.0% rubusoside): 2985 µg/mL
Curcumin in water solution ([4]; stock diluted 1:3 with water, 10.0% rubusoside): 1489 µg/mL
Curcumin in water solution ([4]; stock diluted 1:7 with water, 5.0% rubusoside): 742 µg/mL
Curcumin in water solution ([4]; stock diluted 1:15 with water, […] rubusoside): 358 µg/mL
Curcumin in water solution ([4]; stock diluted 1:39 with water, 1.0% rubusoside): 135 µg/mL
Reconstitution of dried powder [5]: successfully reconstituted
Curcumin content of reconstituted solution ([5]; powder from 30% rubusoside solution): 1.87 % w/w
Curcumin content of reconstituted solution ([5]; powder from 40% rubusoside solution): 2.03 % w/w
IC50 ([6]; Homo sapiens, PANC-1, re-constituted curcumin-rubusoside solution, pH 7.2, 72 hours): ~5.5 µg/mL and ~14.9 µM
Curcumin concentration (24 h): 0.34 mg/mL
Structure (SMILES): COc1cc(/C=C/C(=O)CC(=O)/C=C/c2ccc(O)c(OC)c2)ccc1O [curcumin]
Growth inhibition ([6]; 6.25 μg/mL curcumin, 72 hours): strong inhibition
Curcumin concentration giving maximum growth inhibition ([6]; 72 hours): ≥ 12.5 µg/mL
Growth inhibition ([6]; curcumin below 3.13 μg/mL, 72 hours): no inhibitory effect
IC50 [7]: 17 µM

Papp A→B at 2 h, 10 μM [2]: 33.5 ×10⁻⁶ cm/s
Structure (SMILES): CC(=O)CC(c1ccccc1)c1c(O)c2ccccc2oc1=O (stereo not shown) [Warfarin, warfarin]

Papp A→B at 2 h, 10 μM [2]: 1.7 ×10⁻⁶ cm/s
Structure (SMILES): CNC(=C[N+](=O)[O-])NCCSCc1ccc(CN(C)C)o1 [Ranitidine]

Reconstitution of dried powder [5]: successfully reconstituted
Structure (SMILES): Oc1ccc(C=Cc2cc(O)cc(O)c2)cc1 [resveratrol]
